Laboratory results from the supplement of paper PMC11451515.

Legend:
Details in all cases: 48 h
P12-Ichikawa [1] = test: AUC of viability dose-response curve (% viability x log10 dose units); higher = less sensitive
Outline: (§1)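 Over 48 h at 37°C, leukemia cells in 1536-well plates (500 or 1000 cells/well), adapted to each medium, received library compounds in DMSO at 11 threefold doses from 47 μM to 0.79 nM. CellTiter-Glo One luminescence, normalised per plate to DMSO and cell-free wells, was fitted by a four-parameter log-logistic function of log10 dose. The area under the curve was then integrated by trapezoidal rule, after scaling curves above full viability and removing those that failed quality control.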

NOMO1 [2] = test: as above
Outline: as §1

SEM cells [3] = test: as above
Outline: as §1

P12-Ichikawa [4] = test: cell viability relative to DMSO control; higher = less cytotoxic
Outline: (§2)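 Viability is expressed as a percentage of DMSO wells within each plate, and cell-free wells serve as background. Seeding densities in the 1536-well plates (5 μl) were 500 cells/well for NOMO1 or SEM leukemia cells and 1000 cells/well for P12-Ichikawa. Each line was adapted for at least four passages in each medium. Library compounds in DMSO were pin-dosed at 47 μM to 0.79 nM (11 points, threefold), and CellTiter-Glo One luminescence was read after 48 h at 37°C.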

NOMO1 [5] = test: as above
Outline: as §2

SEM cells [6] = test: as above
Outline: as §2

CC1=CC=CC=C1N2\C(=N/C3=C(C(=CC=C3)C)C2=O)C[N]4C=NC5=C4N=CN=C5N
AUC of viability dose-response curve
Details	NOMO1 [2]	P12-Ichikawa [1]	SEM cells [3]
HPLM + 10% dialyzed FBS	369	439	344
RPMI 5 mM glucose + 10% FBS	427	412	308
RPMI 5 mM glucose + 10% dialyzed FBS	406	419	344

cell viability [%]
Details	NOMO1 [5]	P12-Ichikawa [4]	SEM cells [6]
HPLM + 10% dialyzed FBS, 0.000781 µM	–	115	97.1
HPLM + 10% dialyzed FBS, 0.00234 µM	–	124	110
HPLM + 10% dialyzed FBS, 0.00702 µM	–	122	115
HPLM + 10% dialyzed FBS, 0.0211 µM	–	85	92.6
HPLM + 10% dialyzed FBS, 0.0632 µM	–	120	83.8
HPLM + 10% dialyzed FBS, 0.19 µM	–	118	77.7
HPLM + 10% dialyzed FBS, 0.569 µM	–	108	67.3
HPLM + 10% dialyzed FBS, 1.71 µM	–	106	72.1
HPLM + 10% dialyzed FBS, 5.12 µM	–	79.5	49.6
HPLM + 10% dialyzed FBS, 15.4 µM	–	78.2	46.6
HPLM + 10% dialyzed FBS, 46.1 µM	–	82.2	37.2
RPMI 5 mM glucose + 10% FBS, 0.000781 µM	107	113	90.8
RPMI 5 mM glucose + 10% FBS, 0.00234 µM	106	116	93
RPMI 5 mM glucose + 10% FBS, 0.00702 µM	122	107	94.3
RPMI 5 mM glucose + 10% FBS, 0.0211 µM	108	79.6	65.9
RPMI 5 mM glucose + 10% FBS, 0.0632 µM	110	109	83.4
RPMI 5 mM glucose + 10% FBS, 0.19 µM	106	98.1	62.1
RPMI 5 mM glucose + 10% FBS, 0.569 µM	107	97.6	59.4
RPMI 5 mM glucose + 10% FBS, 1.71 µM	94.4	81.2	54.8
RPMI 5 mM glucose + 10% FBS, 5.12 µM	69.2	62.8	45
RPMI 5 mM glucose + 10% FBS, 15.4 µM	72.9	60.5	34.4
RPMI 5 mM glucose + 10% FBS, 46.1 µM	67	57.9	20.8
RPMI 5 mM glucose + 10% dialyzed FBS, 0.000781 µM	108	107	93.2
RPMI 5 mM glucose + 10% dialyzed FBS, 0.00234 µM	109	123	112
RPMI 5 mM glucose + 10% dialyzed FBS, 0.00702 µM	109	116	120
RPMI 5 mM glucose + 10% dialyzed FBS, 0.0211 µM	97.1	81.7	84.3
RPMI 5 mM glucose + 10% dialyzed FBS, 0.0632 µM	113	128	90
RPMI 5 mM glucose + 10% dialyzed FBS, 0.19 µM	92.6	112	77.5
RPMI 5 mM glucose + 10% dialyzed FBS, 0.569 µM	94.8	108	68.1
RPMI 5 mM glucose + 10% dialyzed FBS, 1.71 µM	80.8	95.6	64.8
RPMI 5 mM glucose + 10% dialyzed FBS, 5.12 µM	67.2	70.2	53.5
RPMI 5 mM glucose + 10% dialyzed FBS, 15.4 µM	64.5	56	46.2
RPMI 5 mM glucose + 10% dialyzed FBS, 46.1 µM	61.1	63.9	33.8
